Structures can show the parent of a compound that is named as a salt.
Columns and labels:
P. expansum = test: Protection of wounded apples against postharvest rot (lesion diameter); type: in vivo, Penicillium expansum
Procedure: (§1) Apples (Malus domestics Borkh cv. Golden) were harvested from commercial orchards maintained with standard cultural practices in Belgium and placed in regular long term storage. Commercial class I fruits were used. They were bought from wholesale dealers and stored in a cold room at 4±1° C. for maximum 15 days before use.
(§2) B. cinerea (grey mould) and Penicillium expansum (blue mould) strains were initially isolated from strawberries and apples respectively in Gembloux.
(§3) Conidia from the two pathogenic strains were put in suspension in a glycerol solution (25%) and stored at −70° C. Another storage method consisted of growing the pathogen on Potato Dextrose Agar (PDA) in tubes, covering it then by paraffin oil and keeping the tubes at 25° C. Starting from this stored material, the two fungal strains were transferred to oat medium at 25° C. Conidial suspensions were prepared in an aqueous sterile solution of Tween 20 (0.05%), and were adjusted to the required concentration (10^6 spores/ml) using a Bärker cell.
(§4) Before use, the micro-organisms were subcultured three times successively at 24 hours intervals on PDA (Potato Dextrose Agar). At the third generation, yeast cells were removed from the culture medium and suspended in isotonic water (NaCl 0.85%). Suspension concentrations were adjusted to the required values after the establishment of a regression line in relation with the micro-organisms suspension absorbance (at 595 nm) and the number of colony forming units (cfu) of the same suspension spread onto PDA.
(§5) Fruits were disinfected by dipping for 2 minutes in sodium hypochlorite (10% of the commercial product). They were rinsed in sterile water and dried out under laminar flux before being wounded by removing 6 mm diameter and 3 mm deep blocks of tissue from two sites 4-5 cm apart along the equatorial line of the fruits.
(§6) The wounds were treated by application of 50 μl of compositions of the state of the art or compositions of the invention.
(§7) After a 24 h at 20° C. incubation period in plastic boxes, the wounds have been inoculated with 50 μl of the respective conidial suspensions of the pathogens. The fruits were incubated during one to three weeks at 25° C.
[…] Four fruits (8 wounds) were used per treatment.
(§8) The percentage of protection provided by the different treatments is calculated from the diameter of lesion caused by the fruit rot agent after the incubation time using the following formula:
(§9) [formula] where Y is the percentage of protection; DT is the mean diameter of lesions for the untreated control and Dx is the mean diameter of lesions for the treated fruits.
(§10) Vegetal material, pathogens, antagonistic micro-organisms and treatment method were as in example 1. The wounds were treated by application of 50 pi of compositions of the state of the art or compositions of the invention. The effect of the compositions against postharvest apple rots caused by B. cinerea has been evaluated under controlled conditions.

B. cinerea = test: as above; type: in vivo
Procedure: as §1, §2, §3, §4, §5, §6, §7
The diameters of the lesions developing around the wounds were measured after 7, 10, 14 and up to 20 days after treatment. Four fruits (8 wounds) were used per treatment.
as §8, §9, §10

P. digitatum = test: Protection of wounded oranges against green mould; type: in vivo, Penicillium digitatum strain CBS31948; conditions: Table 7, GA 0.01% w/v
Procedure: Oranges (Citrus sinensis (L.) Ohl. cv. Valencia) were bought from wholesale dealers and stored in a cold room at 4±1° C. for maximum 15 days before use.
Penicillium digitatum strain CBS31948 (green mould of oranges) was obtained from the CentraalBureau Schimmelcultures, Netherlands collection and initially isolated from Citrus fruits. Conidia from the pathogenic strain were put in suspension in a glycerol solution (25%) and stored at −70° C. Starting from this stored material, the fungal strain was transferred to oat medium at 25° C. Conidial suspensions were prepared in an aqueous sterile solution of Tween 20 (0.05%). Before use, suspensions have been adjusted to the required concentration (10^5 spores/ml) using a Barker cell.
The antagonistic yeast strain P. anomala “strain K” was obtained as in example 1. C. oleophila strain I-182 commercialised under the name Aspire™ was obtained from Ecogen Inc. Both microorganisms were subcultured as in example 1.
Fruits were disinfected and wounded as in example 1. […] The percentage of protection is calculated as in example 1.
Vegetal material, pathogens, antagonistic agents and treatment method were as in example 3. […] The effect of the compositions against postharvest rots caused by P. digitatum has been evaluated under controlled conditions.

[1] = Table 12, M (mannans) 0.02% w/v

O.O=C[C@H](O)[C@@H](O)[C@@H](O)[C@H](O)C(=O)O [GA, galacturonic acid (monohydrate)]
% protection against P. expansum After 7 days (P. expansum; Table 3, GA 0.01% w/v): 18% | % protection against P. expansum after 6 days (P. expansum; Table 4, GA 0.001% w/v): 15% | % protection against P. expansum after 8 days (P. expansum; Table 4, GA 0.001% w/v): 9% | % protection against P. expansum after 10 days (P. expansum; Table 4, GA 0.001% w/v): 7% | % protection against B. cinerea after 7 days (B. cinerea; Table 1, GA 0.01% w/v): 49% | % protection against B. cinerea after 10 days (B. cinerea; Table 1, GA 0.01% w/v): 42% | % protection against B. cinerea after 14 days (B. cinerea; Table 1, GA 0.01% w/v): 22% | % protection against B. cinerea after 20 days (B. cinerea; Table 1, GA 0.01% w/v): 2% | % protection against B. cinerea after 7 days (B. cinerea; Table 2, GA 0.001% w/v): 87% | % protection against B. cinerea after 10 days (B. cinerea; Table 2, GA 0.001% w/v): 47% | % protection against B. cinerea after 14 days (B. cinerea; Table 2, GA 0.001% w/v): 33% | % protection against B. cinerea after 20 days (B. cinerea; Table 2, GA 0.001% w/v): 0% | % protection against B. cinerea after 7 days (B. cinerea; Table 3, GA 0.01% w/v): 12% | % protection against B. cinerea after 7 days (B. cinerea; Table 13, GA 0.001% w/v): 87% | % protection against B. cinerea after 10 days (B. cinerea; Table 13, GA 0.001% w/v): 47% | % protection against B. cinerea after 14 days (B. cinerea; Table 13, GA 0.001% w/v): 33% | % protection against B. cinerea after 20 days (B. cinerea; Table 13, GA 0.001% w/v): 0% | % protection against P. digitatum after 7 days (P. digitatum): 58% | % protection against P. digitatum after 10 days (P. digitatum): 36%

O=C[C@H](O)[C@@H](O)[C@H](O)[C@H](O)C(=O)O [GU, glucuronic acid (sodium salt)]
% protection against B. cinerea after 7 days (B. cinerea; Table 1, GU 0.001% w/v): 75% | % protection against B. cinerea after 10 days (B. cinerea; Table 1, GU 0.001% w/v): 46% | % protection against B. cinerea after 14 days (B. cinerea; Table 1, GU 0.001% w/v): 46% | % protection against B. cinerea after 20 days (B. cinerea; Table 1, GU 0.001% w/v): 21% | % protection against B. cinerea after 7 days (B. cinerea; Table 2, GU 0.001% w/v): 75% | % protection against B. cinerea after 10 days (B. cinerea; Table 2, GU 0.001% w/v): 46% | % protection against B. cinerea after 14 days (B. cinerea; Table 2, GU 0.001% w/v): 46% | % protection against B. cinerea after 20 days (B. cinerea; Table 2, GU 0.001% w/v): 21%

mannans
% protection against B. cinerea after 7 days (B. cinerea; [1]): 100% | % protection against B. cinerea after 10 days (B. cinerea; [1]): 78% | % protection against B. cinerea after 14 days (B. cinerea; [1]): 55% | % protection against B. cinerea after 20 days (B. cinerea; [1]): 16% | % protection against B. cinerea after 7 days (B. cinerea; Table 12, M (mannans) 0.2% w/v): 100% | % protection against B. cinerea after 10 days (B. cinerea; Table 12, M (mannans) 0.2% w/v): 93% | % protection against B. cinerea after 14 days (B. cinerea; Table 12, M (mannans) 0.2% w/v): 68% | % protection against B. cinerea after 20 days (B. cinerea; Table 12, M (mannans) 0.2% w/v): 26% | % protection against B. cinerea after 7 days (B. cinerea; Table 13, M 0.02% w/v): 100% | % protection against B. cinerea after 10 days (B. cinerea; Table 13, M 0.02% w/v): 78% | % protection against B. cinerea after 14 days (B. cinerea; Table 13, M 0.02% w/v): 55% | % protection against B. cinerea after 20 days (B. cinerea; Table 13, M 0.02% w/v): 16% | % protection against B. cinerea after 7 days (B. cinerea; Table 13, M 0.2% w/v): 100% | % protection against B. cinerea after 10 days (B. cinerea; Table 13, M 0.2% w/v): 93% | % protection against B. cinerea after 14 days (B. cinerea; Table 13, M 0.2% w/v): 68% | % protection against B. cinerea after 20 days (B. cinerea; Table 13, M 0.2% w/v): 28%

polygalacturonic acid [PGA, reference compound]
% protection against P. expansum after 6 days (P. expansum; Table 4, PGA 0.001% w/v): 19% | % protection against P. expansum after 8 days (P. expansum; Table 4, PGA 0.001% w/v): 12% | % protection against P. expansum after 10 days (P. expansum; Table 4, PGA 0.001% w/v): 10%

Reference: US7241439B2, “Biopesticide compositions” (Faculte Universitaire des Sciences Agronomiques de Gembloux, priority 2001, dated 2007)
